Our source for the IC50 and EC50 values is patent US11787775B2, “Therapeutic compounds and methods of use” (priority 2020, dated 2023).

Common to all, as to format: binding
In experiment [1] the target is TEAD1 (Homo sapiens (Human), UniProt P28347). In words: TEAD lipid pocket TR-FRET (Lipid HTRF) probe competition assay. Conditions: 30 mins incubation with compound; read-out: Lipid HTRF TEAD1 IC50. The procedure: (§1) His-tagged TEAD proteins are pre-incubated with TEAD project compounds for 30 minutes or 4 hours at room temperature. Biotinylated lipid pocket probes are then added to the TEAD/Compound mixture and incubated for 60 minutes at room temperature. The lipid pocket probe competes with the test compound for the TEAD lipid pocket until equilibrium is reached. After 60 minutes, Europium labelled anti-His (Perkin Elmer #ADO 110) and XL665 labelled streptavidin (CIS Bio 610SAXAC) are added to the TEAD/test compound/lipid pocket mixture and incubated for 30 minutes or 4 hours. […] If a TEAD lipid pocket binder such as binds and displaces the lipid pocket probe, the disruption of the TEAD:probe interaction results in a decrease in TR-FRET signal. The potency of compounds as TEAD lipid pocket binders is determined by IC50 value generated using a non-linear 4 parameter curve fit.
Sequence of TEAD1 (P28347 whole entry, species assumed): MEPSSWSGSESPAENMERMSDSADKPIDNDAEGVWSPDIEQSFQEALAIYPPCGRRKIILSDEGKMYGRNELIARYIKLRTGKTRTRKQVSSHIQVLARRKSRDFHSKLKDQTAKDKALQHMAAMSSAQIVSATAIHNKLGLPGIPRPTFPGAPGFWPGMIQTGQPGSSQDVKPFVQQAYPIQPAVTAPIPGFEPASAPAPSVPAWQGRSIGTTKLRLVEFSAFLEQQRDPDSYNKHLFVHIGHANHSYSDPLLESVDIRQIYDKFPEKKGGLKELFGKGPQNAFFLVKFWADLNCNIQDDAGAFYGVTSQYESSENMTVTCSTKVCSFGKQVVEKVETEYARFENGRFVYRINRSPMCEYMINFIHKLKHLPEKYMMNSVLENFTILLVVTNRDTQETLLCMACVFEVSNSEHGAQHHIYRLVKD
(§2) Note that the “Compound Number” in Table 2 and Table 3 corresponds to the “Compound Number” in Table 1.
(Time-resolved FRET reads energy transfer from a long-lived donor to a nearby acceptor.)

In experiment [2] the target is TEAD2 (Homo sapiens (Human), UniProt Q15562). The experiment is described as above. Conditions: 30 mins incubation with compound; read-out: Lipid HTRF TEAD2 IC50. The procedure: as §1, §2
Sequence of TEAD2 (Q15562 whole entry): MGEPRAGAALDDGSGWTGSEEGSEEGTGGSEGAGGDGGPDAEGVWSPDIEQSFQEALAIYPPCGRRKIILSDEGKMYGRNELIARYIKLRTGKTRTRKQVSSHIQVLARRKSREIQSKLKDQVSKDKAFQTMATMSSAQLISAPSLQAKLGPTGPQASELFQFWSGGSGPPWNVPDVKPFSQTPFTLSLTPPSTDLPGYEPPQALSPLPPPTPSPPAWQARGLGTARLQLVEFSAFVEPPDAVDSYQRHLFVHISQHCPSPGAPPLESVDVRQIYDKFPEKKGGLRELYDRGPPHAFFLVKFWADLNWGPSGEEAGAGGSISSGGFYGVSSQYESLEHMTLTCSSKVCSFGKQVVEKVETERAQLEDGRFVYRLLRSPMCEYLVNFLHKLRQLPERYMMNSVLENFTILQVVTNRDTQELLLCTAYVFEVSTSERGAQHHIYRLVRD
The target in experiment [3] is TEAD3 (Homo sapiens (Human), UniProt Q99594). Described as above. Conditions: 30 mins incubation with compound. The procedure:
as §1, §2

The target of experiment [4] is TEAD4 (Homo sapiens (Human), UniProt Q15561). The experiment is described as above. Conditions: 30 mins incubation with compound; read-out: Lipid HTRF TEAD4 IC50. Here is the method: as §1, §2
Sequence of TEAD4 (Q15561 whole entry, species assumed, the tested form may be a part): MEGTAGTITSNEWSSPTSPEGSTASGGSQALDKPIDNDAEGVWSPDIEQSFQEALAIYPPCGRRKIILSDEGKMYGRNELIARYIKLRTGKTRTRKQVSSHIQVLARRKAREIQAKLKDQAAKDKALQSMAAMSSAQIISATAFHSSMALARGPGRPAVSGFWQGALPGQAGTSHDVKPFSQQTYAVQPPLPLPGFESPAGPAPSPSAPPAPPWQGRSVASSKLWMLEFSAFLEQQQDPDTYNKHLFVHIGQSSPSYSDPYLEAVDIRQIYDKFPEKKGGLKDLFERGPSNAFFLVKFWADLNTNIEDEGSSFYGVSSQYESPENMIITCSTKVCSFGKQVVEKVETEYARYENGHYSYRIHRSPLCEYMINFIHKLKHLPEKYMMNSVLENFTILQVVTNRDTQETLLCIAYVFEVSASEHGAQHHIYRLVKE
Experiment [5] has as its target TEAD1 YAP50-100 (Homo sapiens (Human), UniProt P28347). In words: TEAD-YAP protein-protein interaction HTRF assay. Conditions: TEAD1 YAP50-100 HTRF combined EC50, 30 mins incubation with compound. Here is the method: (§3) Purified His-tagged TEAD protein (YAP Binding Domain, amino acids 217-447) is pre-incubated with Europium labelled anti-His antibody tracer (Perkin Elmer Cat #AD0110). Small molecule Inhibitors are then incubated with the TEAD-Eu protein complex for 30 minutes or 4 hours to allow for binding to TEAD protein. Biotinylated YAP peptide for TEAD-YAP assays (AA's 50-100) or biotinylated TAZ peptide for TEAD-TAZ assays (AA's 13-57) that has been pre-incubated with streptavidin −xl665 acceptor (CIS-Bio Cat #610SAXAC) or is added to the compound-TEAD mix. The TEAD-YAP-inhibitor mixture is then incubated for 60 minutes at room temperature. All reactions are carried out in a polystyrene plate. After 60 minutes, the plate is read on a plate reader using TR-FRET mode with wavelengths of 665 nm/615 nm. If YAP or TAZ binds to TEAD as expected, a TR-FRET signal results from the proximity of YAP or TAZ and TEAD after binding. If an inhibitor such as peptide 17 (Selleckchem Cat #S8164) interferes with YAP-TEAD or TAZ-TEAD binding, the disruption of the YAP or TAZ:TEAD interaction results in a decrease in TR-FRET signal. The potency of compounds as YAP:TEAD or TAZ:TEAD protein-protein interaction (PPi) inhibitors is determined by an IC50 or EC50 value generated using a non-linear four parameter curve fit. The extent to which representative examples of the disclosed compounds are able to inhibit interaction between TEAD1, TEAD2, TEAD3 or TEAD4 and YAP truncated from amino acids 50-100 or TAZ truncated from amino acids 13-57 as measured by Homogeneous Time Resolved Fluorescence (HTRF) to generate EC50 and IC50 data.
(§4) Note that the “Compound Number” in Table 4 corresponds to the “Compound Number” in Table 1. […]

The target in experiment [6] is TEAD2 YAP50-100 (Homo sapiens (Human), UniProt Q15562). In words: TEAD-YAP protein-protein interaction HTRF assay. Conditions: TEAD2 YAP50-100 HTRF combined EC50, 30 mins incubation with compound. The procedure: as §3, §4
Sequence of TEAD2 YAP50-100 (Q15562 217-447): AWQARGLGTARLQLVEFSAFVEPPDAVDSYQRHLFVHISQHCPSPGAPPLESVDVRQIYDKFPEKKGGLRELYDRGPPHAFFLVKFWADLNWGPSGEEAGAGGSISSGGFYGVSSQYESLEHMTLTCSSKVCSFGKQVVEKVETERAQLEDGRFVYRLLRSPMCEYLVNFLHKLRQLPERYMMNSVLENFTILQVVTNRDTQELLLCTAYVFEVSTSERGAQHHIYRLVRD
Experiment [7] deals with TEAD3 YAP50-100 (Homo sapiens (Human), UniProt Q99594). In words: TEAD-YAP protein-protein interaction HTRF assay. Conditions: TEAD3 YAP50-100 HTRF combined EC50, 30 mins incubation with compound. Here is the method: as §3, §4
Sequence of TEAD3 YAP50-100 (Q99594 218-435): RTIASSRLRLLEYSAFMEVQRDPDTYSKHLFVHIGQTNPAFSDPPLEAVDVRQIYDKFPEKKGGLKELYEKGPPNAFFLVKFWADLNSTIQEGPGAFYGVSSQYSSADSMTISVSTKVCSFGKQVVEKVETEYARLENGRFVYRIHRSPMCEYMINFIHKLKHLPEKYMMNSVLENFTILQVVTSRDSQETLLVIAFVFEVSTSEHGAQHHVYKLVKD
The target in experiment [8] is TEAD4 YAP50-100 (Homo sapiens (Human), UniProt Q15561). In words: TEAD-YAP protein-protein interaction HTRF assay. Conditions: TEAD4 YAP50-100 HTRF combined EC50, 30 mins incubation with compound. The procedure: as §3, §4
Sequence of TEAD4 YAP50-100 (Q15561 217-434): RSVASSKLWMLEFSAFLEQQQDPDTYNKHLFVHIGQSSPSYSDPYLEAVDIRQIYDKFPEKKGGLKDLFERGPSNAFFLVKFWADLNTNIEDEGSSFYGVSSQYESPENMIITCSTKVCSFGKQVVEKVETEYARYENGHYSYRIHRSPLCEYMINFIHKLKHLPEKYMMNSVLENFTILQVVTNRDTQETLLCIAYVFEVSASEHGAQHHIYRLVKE

Sequence of TEAD3 (Q99594 whole entry, species assumed): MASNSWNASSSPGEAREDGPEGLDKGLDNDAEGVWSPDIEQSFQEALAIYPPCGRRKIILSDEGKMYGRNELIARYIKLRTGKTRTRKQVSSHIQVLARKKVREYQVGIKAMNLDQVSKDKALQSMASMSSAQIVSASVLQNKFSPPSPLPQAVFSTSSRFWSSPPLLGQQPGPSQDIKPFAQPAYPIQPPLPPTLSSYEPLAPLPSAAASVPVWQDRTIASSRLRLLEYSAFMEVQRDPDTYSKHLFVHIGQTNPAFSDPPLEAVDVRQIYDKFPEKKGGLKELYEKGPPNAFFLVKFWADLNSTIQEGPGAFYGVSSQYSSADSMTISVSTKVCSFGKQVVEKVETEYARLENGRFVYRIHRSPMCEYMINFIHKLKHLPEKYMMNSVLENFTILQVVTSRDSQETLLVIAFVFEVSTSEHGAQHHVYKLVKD
Sequence of TEAD1 YAP50-100 (P28347 209-426): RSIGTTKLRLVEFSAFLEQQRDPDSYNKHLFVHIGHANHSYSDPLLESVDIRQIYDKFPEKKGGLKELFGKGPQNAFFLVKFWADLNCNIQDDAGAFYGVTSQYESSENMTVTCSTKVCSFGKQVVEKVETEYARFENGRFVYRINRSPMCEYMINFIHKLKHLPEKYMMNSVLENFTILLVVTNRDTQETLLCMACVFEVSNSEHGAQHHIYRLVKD

For orientation: IC50 means the concentration that inhibits the measured activity by half. Usually EC50 stands for the midpoint of the concentration-response curve. For the compound `C=C(CNc1cc(-c2ccc(C(C)C)cc2)c2c(c1CO)CCO2)C(=O)O` [Compound 12, 2-[[[4-(hydroxymethyl)-7-(4-isopropylphenyl)-2,3-dihydrobenzofuran-5-yl]amino]methyl]prop-2-enoic acid], the IC50 in experiment [1] is 1500 nM; in experiment [2] it was 930 nM; in experiment [3], 47000 nM; in experiment [4], 470 nM. In addition, the EC50 was 780 nM in experiment [5], 300 nM in experiment [6], above 50000 nM in experiment [7] and 750 nM in experiment [8].
For the compound `C=C(CNc1cc(-c2ccc(C(C)C)cc2)c2c(c1CO)CCO2)C(N)=O` [Compound 13, 2-[[[4-(hydroxymethyl)-7-(4-isopropylphenyl)-2,3-dihydrobenzofuran-5-yl]amino]methyl]prop-2-enamide], the IC50 in experiment [1] was determined as 780 nM; in experiment [2], 220 nM; in experiment [3], 11000 nM; in experiment [4], 180 nM. The EC50 came to 330 nM in experiment [5], 40 nM in experiment [6], 22000 nM in experiment [7] and 180 nM in experiment [8].
Take `C=C(CNc1cc(-c2ccc(C(C)C)cc2)c2c(c1CO)CCO2)C(=O)NO` [Compound 14, 2-[[[4-(hydroxymethyl)-7-(4-isopropylphenyl)-2,3-dihydrobenzofuran-5-yl]amino]methyl]prop-2-enehydroxamic acid]: the concentration for half-maximal inhibition (IC50) in experiment [1] worked out at 520 nM; in experiment [2], 120 nM; in experiment [3] it was 2400 nM; in experiment [4] it was 420 nM. In addition, the EC50 in experiment [5] was determined as 280 nM; in experiment [6], 70 nM; in experiment [7], 3400 nM; in experiment [8] it was 890 nM.
For the compound `C=C(CNc1cc(-c2ccc(C(F)(F)F)cc2)c2c(c1C#N)CCO2)C(=O)O` [Compound 15, 2-[[[4-cyano-7-[4-(trifluoromethyl)phenyl]-2,3-dihydrobenzofuran-5-yl]amino]methyl]prop-2-enoic acid], the concentration for half-maximal inhibition (IC50) in experiment [1] was determined as 50 nM; in experiment [2], 530 nM; in experiment [3], 3400 nM; in experiment [4] it was 110 nM. Moreover, the concentration for a half-maximal effect (EC50) in experiment [5] amounted to 40 nM; in experiment [6], 380 nM; in experiment [7] it was 11000 nM; in experiment [8], 250 nM.
Consider `C=C(CNc1cc(-c2ccc(OC(F)(F)F)cc2)c2c(c1C#N)CCO2)C(=O)O` [Compound 18, 2-[[[4-cyano-7-[4-(trifluoromethoxy)phenyl]-2,3-dihydrobenzofuran-5-yl]amino]methyl]prop-2-enoic acid], for which the concentration for half-maximal inhibition (IC50) turned out to be 30 nM in experiment [1], 140 nM in experiment [2], 2500 nM in experiment [3] and 30 nM in experiment [4]. In addition, the EC50 in experiment [5] worked out at 20 nM; in experiment [6], 90 nM; in experiment [7] it was 7800 nM; in experiment [8], 60 nM.
Turning to `C=C(CNc1cc(-c2ccc(C(C)(F)F)cc2)c2c(c1C#N)CCO2)C(=O)O` [Compound 19, 2-[[[4-cyano-7-[4-(1,1-difluoroethyl)phenyl]-2,3-dihydrobenzofuran-5-yl]amino]methyl]prop-2-enoic acid], the IC50 in experiment [1] stood at 50 nM; in experiment [2], 350 nM; in experiment [3], 6400 nM; in experiment [4], 110 nM. Also, the concentration for a half-maximal effect (EC50) in experiment [5] is 40 nM; in experiment [6], 190 nM; in experiment [7], 15000 nM; in experiment [8], 230 nM.
With `C=C(CNc1nc2c(c(-c3ccc(C(C)C)cc3)n1)OCC2)C(=O)O` [Compound 20, 2-[[[4-(4-isopropylphenyl)-6,7-dihydrofuro[3,2-d]pyrimidin-2-yl]amino]methyl]prop-2-enoic acid], the IC50 in experiment [1] was determined as 200 nM; in experiment [2] it was 70 nM; in experiment [3], 3800 nM; in experiment [4], 20 nM. In addition, the EC50 is 150 nM in experiment [5], 40 nM in experiment [6], above 50000 nM in experiment [7] and 40 nM in experiment [8].
For the compound `C=C(CNc1cc(-c2ccc(C(C)C)cc2)c2c(c1F)CCO2)C(=O)O` [Compound 21, 2-[[[4-fluoro-7-(4-isopropylphenyl)-2,3-dihydrobenzofuran-5-yl]amino]methyl]prop-2-enoic acid], the IC50 in experiment [1] is 60 nM; in experiment [2], 70 nM; in experiment [3] it was 4000 nM; in experiment [4] it was 20 nM. In addition, the EC50 in experiment [5] is 40 nM; in experiment [6], below 10 nM; in experiment [7], above 50000 nM; in experiment [8], 30 nM.
For the compound `C=C(CNc1nc(-c2ccc(C(C)C)cc2)c2c(c1C#N)CCO2)C(=O)O` [Compound 22, 2-[[[4-cyano-7-(4-isopropylphenyl)-2,3-dihydrofuro[2,3-c]pyridin-5-yl]amino]methyl]prop-2-enoic acid], the IC50 in experiment [1] stood at 90 nM; in experiment [2], 100 nM; in experiment [3], 15000 nM; in experiment [4] it was 50 nM. Moreover, the EC50 in experiment [5] is 60 nM; in experiment [6], 60 nM; in experiment [7] it was above 50000 nM; in experiment [8], 100 nM.
Consider `C=C(CNc1cc(-c2ccc(C(C)(F)F)cc2)c2ncsc2c1C#N)C(=O)O` [Compound 24, 2-[[[7-cyano-4-[4-(1,1-difluoroethyl)phenyl]-1,3-benzothiazol-6-yl]amino]methyl]prop-2-enoic acid], for which the concentration for half-maximal inhibition (IC50) in experiment [1] amounted to 160 nM; in experiment [2], 740 nM; in experiment [3] it was 20000 nM; in experiment [4], 370 nM. The EC50 is 80 nM in experiment [5], 260 nM in experiment [6], 15000 nM in experiment [7] and above 50000 nM in experiment [8].
As for `C=C(CNc1cnc(OC)c(/C=C/[C@H]2CC[C@H](C(F)(F)F)CC2)c1)C(=O)O` [Compound 25, 2-[[[6-methoxy-5-[(E)-2-[trans-4-(trifluoromethyl)cyclohexyl]vinyl]-3-pyridyl]amino]methyl]prop-2-enoic acid], the IC50 turned out to be 580 nM in experiment [1], 270 nM in experiment [2], 1250 nM in experiment [3] and 140 nM in experiment [4]. Besides, the concentration giving a half-maximal response (EC50) in experiment [5], in experiment [6], in experiment [7] and in experiment [8] was above 50000 nM throughout.
Take `C=C(CNc1cc(-c2c(F)cc(C(C)C)cc2F)c2c(c1C#N)CCO2)C(=O)O` [Compound 28, 2-[[[4-cyano-7-(2,6-difluoro-4-isopropyl-phenyl)-2,3-dihydrobenzofuran-5-yl]amino]methyl]prop-2-enoic acid]: the concentration for half-maximal inhibition (IC50) was found to be 690 nM in experiment [1], 350 nM in experiment [2], 16000 nM in experiment [3] and 320 nM in experiment [4]. Moreover, the half-maximal effective concentration (EC50) in experiment [5], in experiment [6], in experiment [7] and in experiment [8] was above 50000 nM each time.
Take `C=C(CNc1cc(-c2ccc(C(C)C)cc2F)c2c(c1C#N)CCO2)C(=O)O` [Compound 30, 2-[[[4-cyano-7-(2-fluoro-4-isopropyl-phenyl)-2,3-dihydrobenzofuran-5-yl]amino]methyl]prop-2-enoic acid]: the IC50 in experiment [1] was determined as 50 nM; in experiment [2], 100 nM; in experiment [3], 5900 nM; in experiment [4] it was 30 nM. Also, the EC50 in experiment [5] came out at 30 nM; in experiment [6], 40 nM; in experiment [7], 8200 nM; in experiment [8], 40 nM.
